Experimental data published in ChEMBL document CHEMBL1201862, “PubChem BioAssay data set” (2004).
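Values below derive from 48-hour exposures of cells grown in 96-well plates, with endpoints linearly interpolated between the two concentrations bracketing the appropriate inhibition level. At the GI50, growth is halved.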 Activity calls are given as the source filed them. No stated cut-off is given here; in the data, active = GI50 up to about 1.1 µM and inactive = higher.

Tests used:
Test in all cases: NCI-60 cell line screen, 48 h
Hs-578T = tested on: Hs-578T
BT-549 = tested on: BT-549
DLD-1 = tested on: DLD-1
HOP-18 = tested on: HOP-18
XF498 = tested on: XF498
M19-MEL = tested on: M19-MEL
DMS-273 = tested on: DMS-273
LXFL 529 = tested on: LXFL 529

Row | Compound | GI50 (Hs-578T) | GI50 (BT-549) | other results
1 | CCOC(=O)NC(C(=O)OCC)C(F)(F)F (centres undefined) | > 100 µM (inactive) | – | –
2 | COI1NC(=O)c2ccccc21 | > 100 µM (inactive) | – | –
3 | CCCCn1c2c(n(CCCC)c1=S)-c1c(n(CCCC)c(=S)n1CCCC)S[Se][Se]S2 | 5.25 µM (inactive) | 4.55 µM (inactive) | –
4 | C=CC[C@]1(/C=N/O)CN(S(=O)(=O)CC[Si](C)(C)C)C[C@H]2CC=CC[C@H]21 | – | 28.5 µM (inactive) | –
5 | N#CC(C#N)/N=N/c1ccc(-c2nc3ccccc3[nH]2)cc1 | 52 µM (inactive) | 11 µM (inactive) | –
6 | CCN1C(Cl)=NS(=O)(=O)c2ccccc21 | 36.9 µM (inactive) | 17.5 µM (inactive) | –
7 | O=C1Oc2ccccc2C(=O)/C1=C\Nc1nc(-c2ccc(O)c(O)c2)cs1 | 15.3 µM (inactive) | 5.77 µM (inactive) | –
8 | CC(C)=NNc1snnc1C(N)=O | > 100 µM (inactive) | > 100 µM (inactive) | –
9 | Nc1nc(N)c(-c2ccccc2)c(C(=O)Nc2ccccc2)n1 | – | – | GI50 (DLD-1): > 100 µM (inactive); GI50 (HOP-18): > 100 µM (inactive); GI50 (XF498): > 100 µM (inactive); GI50 (M19-MEL): > 100 µM (inactive)
10 | O=C(/C=C/c1ccccc1)N1CCCCC1 | > 100 µM (inactive) | > 100 µM (inactive) | –
11 | COc1ccc2c3c([nH]c2c1[N+](=O)[O-])C(C)N(C(=O)/C=C/c1ccccc1)CC3 (centres undefined) | – | – | GI50 (DMS-273): 1.57 µM (inactive); GI50 (LXFL 529): 5.9 µM (inactive)
12 | CCc1nc(N)nc(N)c1-c1ccc([N+](=O)[O-])c(NCc2ccccc2)c1 | 13.8 µM (inactive) | 16.9 µM (inactive) | –
13 | Cc1ccc(/N=C2N=C(Cl)/C(=C\c3ccccc3)N\2)cc1 | > 100 µM (inactive) | > 100 µM (inactive) | –
14 | O=C(NCCCN(CCCCN(CCCNC(=O)C(F)(F)F)Cc1ccccc1)Cc1ccccc1)C(F)(F)F | 16.6 µM (inactive) | 14.9 µM (inactive) | –
15 | CCOC(=O)c1c(SC(=O)c2ccc(OC)cc2)n(-c2ccccc2)c(=S)n(-c2ccccc2)c1=O | 45.4 µM (inactive) | – | –
16 | COC(=O)C1(CCC(C)=O)CCCCCC1=O (centres undefined) | – | > 100 µM (inactive) | –
17 | O=C(O)C(O)(c1ccc(-c2ccccc2)cc1)c1ccc(-c2ccccc2)cc1 | – | 20.5 µM (inactive) | –
18 | COC(=O)c1ccc(C)cc1CC1Cc2ccc(C)cc2C1=O (centres undefined) | 15 µM (inactive) | 12.2 µM (inactive) | –
19 | Cc1ccc(S(=O)(=O)N2CCNCCN(S(=O)(=O)c3ccc(C)cc3)CCNCC2)cc1 | 17.8 µM (inactive) | 19.1 µM (inactive) | –
20 | CC(C)CCCC(C)C1CCC2C3CC([N+](=O)[O-])=C4CC(O)CCC4(C)C3CCC12C (centres undefined) | – | – | GI50 (DLD-1): 19 µM (inactive); GI50 (DMS-273): 12.6 µM (inactive); GI50 (XF498): 22.3 µM (inactive); GI50 (M19-MEL): 27.6 µM (inactive); GI50 (LXFL 529): 18.7 µM (inactive)
21 | CO[P@]1(=O)O[C@@H](c2ccccc2)[C@H](O)[C@@]1(O)c1ccccc1 | – | > 100 µM (inactive) | –
22 | COc1cccc(N(CN2C(=O)CCC2C(=O)O)C(C)=O)c1 (centres undefined) | > 100 µM (inactive) | – | –
23 | O=C(O)C1CC2(C1)CC(C(=O)O)C2 (centres undefined) | > 100 µM (inactive) | > 100 µM (inactive) | –
24 | COc1ccc2[nH]c3cc4c(=O)c5cc(OC)ccc5[nH]c4cc3c(=O)c2c1 | > 100 µM (inactive) | > 100 µM (inactive) | –
25 | CN[C@@H](Cc1cccc2ccccc12)C(=O)N[C@@H](CC(C)C)B(O)O | 0.0143 µM (active) | < 0.01 µM (active) | –
26 | CCOC(=O)/C(C#N)=C/c1ccc(SCc2ccco2)c([N+](=O)[O-])c1 | > 100 µM (inactive) | > 100 µM (inactive) | –
27 | OC(CN1CCCCC1)c1ccc(/C=C/c2ccc(Cl)cc2)cc1 (centres undefined) | 50.1 µM (inactive) | > 100 µM (inactive) | –

Row | Compound | GI50 (Hs-578T) | GI50 (BT-549) | other results
28 | OCc1ccc2c(c1)CC1(C2)Cc2cc3c(cc2C1)CCC3 | 4.02 µM (inactive) | 2.81 µM (inactive) | –
29 | CCc1ccccc1NC(=O)C(=O)CC(=O)c1sc(Nc2ccccc2Cl)nc1C | 46.5 µM (inactive) | 34.8 µM (inactive) | –
30 | COc1ccc2c(c1)CCc1c-2n(CCN2CCOCC2)c2ccc(OC)cc12 | 61.7 µM (inactive) | > 100 µM (inactive) | –
31 | C[C@@H]1C(=O)CC2(O)[C@@]13C[C@@H](OC(=O)[C@@H]3O)[C@@H](C)[C@@]21COC1=O (some centres undefined) | > 100 µM (inactive) | > 100 µM (inactive) | –
32 | O=C(Nc1ccccc1)c1cc2ccccc2c(/N=N\c2cccc([N+](=O)[O-])c2)c1O | 21.2 µM (inactive) | > 100 µM (inactive) | –
33 | O=c1[nH]nc(-c2ccccc2)c2[nH]c3c4ccccc4ccc3c12 | 1.79 µM (inactive) | – | –
34 | O=c1oc2ccc(Cl)cc2cc1-c1cn2ccsc2n1 | 76.4 µM (inactive) | 24.1 µM (inactive) | –
35 | COC1OC(C)/C(=N/O)C2OC(C)(C)OC12 (centres undefined) | > 100 µM (inactive) | > 100 µM (inactive) | –
36 | CN1C2CCC1CC(=CCOC(c1ccc(F)cc1)c1ccc(F)cc1)C2 | 11.9 µM (inactive) | 16.3 µM (inactive) | –
37 | Cn1c(NC(=O)NC23CC4CC(CC(C4)C2)C3)nc2ccccc21 | – | – | GI50 (DLD-1): > 100 µM (inactive); GI50 (DMS-273): 26.5 µM (inactive); GI50 (HOP-18): 19.2 µM (inactive); GI50 (M19-MEL): 57.5 µM (inactive); GI50 (LXFL 529): 86.1 µM (inactive)
38 | CC1=C[C@H](O)[C@@]2(C)[C@@H]([C@@H]1C)[C@H]1CC[C@@H]3[C@@]4(C)CC[C@H](O)C(C)(C)[C@@H]4CC[C@@]3(C)[C@]1(C)C[C@@H]2O | 22.3 µM (inactive) | 23.9 µM (inactive) | –
39 | O=[N+]([O-])c1cc(Cl)cnc1Br | 7.16 µM (inactive) | 3.18 µM (inactive) | –
40 | COc1ccc(NCc2cc(OC)c(OC)c(OC)c2)cc1 | – | – | GI50 (DLD-1): 0.345 µM (active); GI50 (DMS-273): 0.143 µM (active); GI50 (LXFL 529): 0.614 µM (active)
41 | c1cnn(CN(Cn2cccn2)Cn2cccn2)c1 | – | – | GI50 (DLD-1): > 100 µM (inactive); GI50 (DMS-273): > 100 µM (inactive); GI50 (XF498): > 100 µM (inactive); GI50 (M19-MEL): > 100 µM (inactive)
42 | CCNC(=O)c1ccc(C)c(/N=N/N(C)C)c1 | – | – | GI50 (DLD-1): > 100 µM (inactive); GI50 (DMS-273): > 100 µM (inactive); GI50 (M19-MEL): > 100 µM (inactive); GI50 (LXFL 529): > 100 µM (inactive)
43 | Nc1nc(CCl)nc(Nc2ccccc2)n1 | – | – | GI50 (DLD-1): 36.9 µM (inactive); GI50 (DMS-273): 4.16 µM (inactive); GI50 (M19-MEL): 29.4 µM (inactive); GI50 (LXFL 529): 14.8 µM (inactive)
44 | CCCCCn1c(=O)c2c(=O)[nH][nH]c2c2ccccc21 | > 100 µM (inactive) | > 100 µM (inactive) | –
45 | CCc1n[nH]c(=O)n1/N=C/c1ccc(/C=N/n2c(CC)n[nH]c2=O)cc1 | > 100 µM (inactive) | > 100 µM (inactive) | –
46 | OCCN(C1=NCCN1)/[N+](=C/c1ccccc1O)[CH-]c1ccccc1O | > 100 µM (inactive) | 37.8 µM (inactive) | –
47 | CCOC(=O)c1ccc(NC(=O)Oc2ccc3c(C)cc(=O)oc3c2)cc1 | 29.6 µM (inactive) | 17.2 µM (inactive) | –
48 | OC1c2ccccc2[C@@H]2[C@H]1[C@@H](c1ccccc1)C1(Cc3ccccc3C1O)[C@H]2c1ccccc1 (some centres undefined) | 6.93 µM (inactive) | 14.7 µM (inactive) | –
49 | CCCCCCCCCCCCCCCCCCNC(=O)C(N)Cc1ccc(OCc2ccccc2)cn1 (centres undefined) | 21.6 µM (inactive) | 23.4 µM (inactive) | –
50 | CC1CC/C(=C\c2ccc(Cl)cc2)C2OC(N)=C(C#N)C(c3ccc(Cl)cc3)=C12 (centres undefined) | 15.6 µM (inactive) | 15.2 µM (inactive) | –
51 | Nc1nc(SCCc2ccccc2)c2nc[nH]c2n1 | 64 µM (inactive) | 47.3 µM (inactive) | –
52 | NC1=C(NC(=O)Cc2ccccc2F)C(=O)c2ccccc2C1=O | – | – | GI50 (DLD-1): 16.6 µM (inactive); GI50 (DMS-273): 97.7 µM (inactive); GI50 (HOP-18): > 100 µM (inactive); GI50 (M19-MEL): 4.5 µM (inactive)
53 | C1C2CC3CC1CC(c1nn4c(C56CC7CC(CC(C7)C5)C6)nnc4s1)(C2)C3 | > 100 µM (inactive) | – | –
54 | COC(=O)C1=CC(=O)OC1(OO)c1ccc(Br)cc1 (centres undefined) | – | > 100 µM (inactive) | –
